# Measurements: patent US20250145589A1, “PYRIDINE DERIVATIVE AND USE THEREOF” (SICHUAN HUIYU PHARMACEUTICAL CO., LTD., priority 2021, published 2025)
# Read-outs that look alike come from different tables or passages of the source.
# What was measured:
# [1] = system: MIA PaCa-2 cells (KRAS G12C mutant); test: MIA PaCa-2 cell anti-proliferation (CellTiter-Glo); type: cell-based; conditions: Homo sapiens, 72 h; MIA Paca-2 cells, 3 days, Table 7; read-out: MIA PaCa-2 (IC50)
# Summary of the method: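 Viable-cell luminescence (CellTiter-Glo, ≥30 min at 25 °C) measured after a 3-day, 37 °C exposure to compounds at 9 points, 4-fold spaced, in DMEM containing 10% FBS plus 2.5% horse serum. IC50 derived versus no-inhibitor wells.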
# PI3Kδ = PI3Kδ (Homo sapiens (Human), UniProt O00329); test: Inhibition of PI3Kδ efficacy assay (ADP-Glo kinase assay); type: biochemical; conditions: read-out: PI3Kδ inhibitory activity (IC50)
# Chain of PI3Kδ (O00329 whole entry): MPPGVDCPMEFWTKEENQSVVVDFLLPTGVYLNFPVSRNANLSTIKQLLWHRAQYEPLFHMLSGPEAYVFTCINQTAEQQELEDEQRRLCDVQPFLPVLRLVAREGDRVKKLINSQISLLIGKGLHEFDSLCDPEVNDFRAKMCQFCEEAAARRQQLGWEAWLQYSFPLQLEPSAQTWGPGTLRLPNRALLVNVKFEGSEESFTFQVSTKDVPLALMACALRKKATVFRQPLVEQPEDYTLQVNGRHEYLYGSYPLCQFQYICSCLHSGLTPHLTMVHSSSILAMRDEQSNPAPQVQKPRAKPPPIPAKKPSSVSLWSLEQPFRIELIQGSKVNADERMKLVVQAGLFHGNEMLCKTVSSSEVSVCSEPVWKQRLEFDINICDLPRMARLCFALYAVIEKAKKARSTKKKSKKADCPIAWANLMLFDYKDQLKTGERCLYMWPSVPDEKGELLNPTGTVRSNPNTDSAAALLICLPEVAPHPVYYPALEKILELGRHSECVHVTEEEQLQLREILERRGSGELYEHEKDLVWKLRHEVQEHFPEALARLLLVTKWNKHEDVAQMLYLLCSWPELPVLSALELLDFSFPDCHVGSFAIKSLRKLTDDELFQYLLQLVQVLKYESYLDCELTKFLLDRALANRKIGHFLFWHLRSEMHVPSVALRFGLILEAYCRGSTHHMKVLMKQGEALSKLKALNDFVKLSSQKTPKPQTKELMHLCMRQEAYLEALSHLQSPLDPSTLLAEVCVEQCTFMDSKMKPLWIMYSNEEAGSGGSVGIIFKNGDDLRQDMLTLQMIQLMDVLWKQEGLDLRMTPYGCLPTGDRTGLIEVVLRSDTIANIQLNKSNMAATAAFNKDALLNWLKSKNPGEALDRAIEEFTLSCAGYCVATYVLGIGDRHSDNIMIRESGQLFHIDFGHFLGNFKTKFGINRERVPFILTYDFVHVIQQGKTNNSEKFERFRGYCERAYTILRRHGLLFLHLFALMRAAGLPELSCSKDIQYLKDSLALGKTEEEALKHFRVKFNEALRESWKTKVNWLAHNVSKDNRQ
# Chain of PI3Kδ (P27986 whole entry partner): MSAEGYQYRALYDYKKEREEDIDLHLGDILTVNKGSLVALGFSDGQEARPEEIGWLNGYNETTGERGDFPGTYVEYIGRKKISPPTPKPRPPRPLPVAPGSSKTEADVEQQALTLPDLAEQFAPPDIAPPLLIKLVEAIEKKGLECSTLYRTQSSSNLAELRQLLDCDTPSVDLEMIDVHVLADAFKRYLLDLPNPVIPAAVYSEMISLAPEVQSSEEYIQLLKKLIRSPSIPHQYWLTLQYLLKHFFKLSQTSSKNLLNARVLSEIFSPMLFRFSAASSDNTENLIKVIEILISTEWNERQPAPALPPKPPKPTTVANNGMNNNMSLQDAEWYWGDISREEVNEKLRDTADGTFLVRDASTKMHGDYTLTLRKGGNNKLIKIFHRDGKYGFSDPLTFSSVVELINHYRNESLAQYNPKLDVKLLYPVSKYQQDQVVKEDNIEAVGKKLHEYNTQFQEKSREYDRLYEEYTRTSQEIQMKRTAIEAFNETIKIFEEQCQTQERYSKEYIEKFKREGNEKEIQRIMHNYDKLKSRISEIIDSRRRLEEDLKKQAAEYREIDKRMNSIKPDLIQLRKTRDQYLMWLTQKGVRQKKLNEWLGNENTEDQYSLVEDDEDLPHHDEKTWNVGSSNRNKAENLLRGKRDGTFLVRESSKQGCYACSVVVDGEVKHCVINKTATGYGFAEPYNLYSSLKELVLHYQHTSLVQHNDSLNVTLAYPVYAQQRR
# Summary of the method: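 Luminescent ADP-Glo readout of PI3Kδ: after a 60 min RT reaction with PI/ATP substrate, ATP depletion (40 min) and ADP detection (40 min) steps followed. Compounds tested as eight five-fold serial dilutions; inhibition rates fitted to log(inhibitor) vs. response, variable slope, for IC50.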
# [2] = system: NCI-H358-AMGR drug-resistant cell line; test: NCI-H358-AMGR drug-resistant cell proliferation inhibitory activity test; type: cell-based; conditions: 72 h; NCI-H358-AMGR drug-resistant cells, 3 days incubation, CellTiter-Glo
# Summary of the method: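 Luminescent CellTiter-Glo read-out after 3-day, 37° C compound exposure (8 points, 5-fold series) of AMG510-resistant NCI-H358 cells plated at 4×10^3 per well.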
# [3] = system: NCI-H358 cells (KRAS G12C mutant); test: NCI-H358 cell proliferation inhibition (CellTiter-Glo); type: cell-based; conditions: Homo sapiens, NCI-H358, 72 h; H358 cells (G12C mutation), 3 days, Table 6; read-out: NCI-H358 (IC50)
# KRAS^G12C-SOS1 = KRAS^G12C-SOS1 (Homo sapiens (Human), UniProt P01116, G12C); test: HTRF KRAS G12C/SOS1 binding assay; conditions: Table 5
# Chain of KRAS^G12C-SOS1 (P01116-2 other isoform, or with tags, fused parts or gaps G12C): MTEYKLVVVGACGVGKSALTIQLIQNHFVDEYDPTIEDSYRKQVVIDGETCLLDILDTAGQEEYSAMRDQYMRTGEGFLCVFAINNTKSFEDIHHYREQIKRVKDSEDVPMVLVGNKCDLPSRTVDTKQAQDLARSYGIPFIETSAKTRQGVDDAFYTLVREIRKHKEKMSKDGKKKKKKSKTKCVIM
# Description: Initially, a 2 mM stock solution of the test compound (dissolved in DMSO) was serially diluted in five-fold concentrations using DMSO to obtain eight working solutions 1 (200×). Subsequently, each of the eight working solutions 1 was further diluted in a 20-fold gradient by adding 5 μL into 95 μL of Diluent buffer, mixed completely with vortex mixer, resulting in eight working solutions 2 (10×). […] Subsequently, 5 μL of Anti-tag 1-Tb^3+ stock solution and 5 μL of Anti-tag2-XL665 were added to each well, mixed, and incubated at 4° C. for 3 hours. Remove the plate and read on an HTRF® compatible reader, with the excitation light wavelength set at 337 nm and readings recorded at 620 nm and 665 nm. The data results were presented as the ratio of the 665 nm signal value to the 620 nm signal value for each well, calculated as follows: […]. The inhibition rate was calculated using the following formula: […]
# Data were analyzed using GraphPad Prism with log (inhibitor) vs. response-Variable Slope (four parameters) fitting calculations for IC50 values.
SMILES,IC50 [1] [nM],IC50 (PI3Kδ; Table 4) [nM],IC50 [2] [nM],IC50 [3] [nM],IC50 (KRAS^G12C-SOS1) [nM],IC50 (PI3Kδ; Table 1) [nM],IC50 (PI3Kδ; Table 2) [nM]
"COC(=O)c1ncc(-c2ccc3ncnc(N4CCN(C(=O)/C=C/C(C)=O)CC4)c3c2)cc1NS(=O)(=O)c1ccc(F)cc1F [Example 181, methyl (E)-3-((2,4-difluoro-phenyl)sulfonamido)-5-(4-(4-(4-oxopent-2-enoyl)piperazin-1-yl)quinazolin-6-yl)picolinate]",56.2,20.4,284,49.7,–,–,–
"COc1ncc(-c2ccc3ncnc(N4CCN(C(=O)/C=C/C(C)=O)C[C@@H]4C)c3c2)cc1NS(=O)(=O)c1c(F)cc(F)cc1F [Example 154, (S,E)-2,4,6-trifluoro-N-(2-methoxy-5-(4-(2-methyl-4-(4-oxopent-2-enoyl)piperazin-1-yl)quinazolin-6-yl)pyridin-3-yl)benzenesulfonamide]",28.8,13.8,61.6,16.7,183,–,–
"COc1ncc(-c2ccc3ncnc(N4CCN(C(=O)/C=C/C(C)=O)CC4)c3c2)cc1NS(=O)(=O)c1c(F)cccc1F [Example 22, (E)-2,6-difluoro-N-(2-methoxy-5-(4-(4-(4-oxopent-2-enoyl)piperazin-1-yl)quinazolin-6-yl)pyridin-3-yl)benzenesulfonamide]",92.1,–,47.9,23.7,149,82.8,–
"C=C(C(C)=O)C(=O)N1CCN(c2ncnc3ccc(-c4cnc(OC)c(NS(=O)(=O)c5ccc(F)cc5F)c4)cc23)CC1 [Example 168, 2,4-difluoro-N-(2-methoxy-5-(4-(4-(2-methylene-3-oxobutanoyl)piperazin-1-yl)quinazolin-6-yl)pyridin-3-yl)benzenesulfonamide]",48.5,17.2,240,31.2,546,–,–
"COc1ncc(-c2ccc3ncnc(N4C[C@@H](C)N(C(=O)/C=C/C(C)=O)C[C@@H]4C)c3c2)cc1NS(=O)(=O)c1c(F)cccc1F [Example 51, N-(5-(4-((2S,5R)-2,5-dimethyl-4-((E)-4-oxopent-2-enoyl)piperazin-1-yl)quinazolin-6-yl)-2-methoxypyridin-3-yl)-2,6-difluorobenzene-sulfonamide]",50.7,–,61,48.7,942,–,19.2
"COc1ncc(-c2ccc3ncnc(N4CCN(C(=O)/C=C/C(C)=O)C[C@@H]4C)c3c2)cc1NS(=O)(=O)c1sc(C)nc1C [Example 173, (S,E)-N-(2-methoxy-5-(4-(2-methyl-4-(4-oxopent-2-enoyl)piperazin-1-yl)quinazolin-6-yl)pyridin-3-yl)-2,4-dimethyl-thiazole-5-sulfonamide]",9.2,16.5,54.7,6.8,199,–,–
"COc1ncc(-c2ccc3ncnc(N4CCN(C(=O)/C=C/C(C)=O)C[C@@H]4C)c3c2)cc1NS(=O)(=O)c1ccc(F)cc1Cl [Example 174, (S,E)-2-chloro-4-fluoro-N-(2-methoxy-5-(4-(2-methyl-4-(4-oxopent-2-enoyl)piperazin-1-yl)quinazolin-6-yl)pyridin-3-yl)benzene-sulfonamide]",15.6,17.1,28.6,15.8,423,–,–
"COc1ncc(-c2ccc3ncnc(N4CCN(C(=O)/C=C/n5ccnn5)CC4)c3c2)cc1NS(=O)(=O)c1ccc(F)cc1F [Example 10, (E)-N-(5-(4-(4-(3-(1H-1,2,3-triazol-1-yl)acryloyl)piperazin-1-yl)quinazolin-6-yl)-2-methoxypyridin-3-yl)-2,4-difluorobenzenesulfonamide]",83.2,–,86.6,24.6,–,16.7,–
"COc1ncc(-c2ccc3ncnc(N4CCN(C(=O)/C=C/C(C)=O)C[C@@H]4C)c3c2)cc1NS(=O)(=O)c1ccc(F)cc1 [Example 153, (S,E)-4-fluoro-N-(2-methoxy-5-(4-(2-methyl-4-(4-oxopent-2-enoyl)piperazin-1-yl)quinazolin-6-yl)pyridin-3-yl)benzenesulfonamide]",56.7,12.7,100,59.8,210,–,–
"COc1ncc(-c2ccc3ncnc(N4CCN(C(=O)/C=C/C(C)=O)C[C@@H]4C)c3c2)cc1NS(=O)(=O)c1c(F)cccc1F [Example 46, (S,E)-2,6-difluoro-N-(2-methoxy-5-(4-(2-methyl-4-(4-oxopent-2-enoyl)piperazin-1-yl)quinazolin-6-yl)pyridin-3-yl) benzenesulfonamide]",91.9,–,27.8,29.9,166,–,36.3
"COc1ncc(-c2ccc3ncnc(N4CCN(C(=O)/C=C/C(C)=O)CC4)c3c2)cc1NS(=O)(=O)c1cccc(F)c1F [Example 90, (E)-2,3-difluoro-N-(2-methoxy-5-(4-(4-(4-oxopent-2-enoyl)piperazin-1-yl)quinazolin-6-yl)pyridin-3-yl)benzenesulfonamide]",51.9,–,56.2,54.5,–,–,23.7
"COc1ncc(-c2ccc3ncnc(C4=CCN(C(=O)/C=C/C(C)=O)CC4)c3c2)cc1NS(=O)(=O)c1c(F)cccc1Cl [Example 202, (E)-2-chloro-6-fluoro-N-(2-methoxy-5-(4-(1-(4-oxopent-2-enoyl)-1,2,3,6-tetrahydropyridin-4-yl)quinazolin-6-yl)pyridin-3-yl)benzene-sulfonamide]",11.6,27.9,9.6,5.2,142,–,–
"COc1ncc(-c2ccc3ncnc(N4CCN(C(=O)/C=C/C(C)=O)CC4)c3c2)cc1NS(C)(=O)=O [Example 170, (E)-N-(2-methoxy-5-(4-(4-(4-oxopent-2-enoyl)piperazin-1-yl)quinazolin-6-yl)pyridin-3-yl)methane-sulfonamide]",118,17,380,61.6,–,–,–
"C=CC(=O)N1CCN(c2ncnc3ccc(-c4cnc(OC)c(NS(=O)(=O)c5ccc(F)cc5F)c4)cc23)[C@@H](C)C1 [Example 7, (S)—N-(5-(4-(4-acryloyl-2-methylpiperazin-1-yl)quinazolin-6-yl)-2-methoxypyridin-3-yl)-2,4-difluorobenzenesulfonamide]",32.3,–,41.7,44,–,12,–
"COc1ncc(-c2ccc3ncnc(N4CCN(C5CN(C(=O)/C=C/C(C)=O)C5)CC4)c3c2)cc1NS(=O)(=O)c1ccc(F)cc1F [Example 56, (E)-2,4-difluoro-N-(2-methoxy-5-(4-(4-(1-(4-oxopent-2-enoyl)azetidin-3-yl)piperazin-1-yl)quinazolin-6-yl)pyridin-3-yl)benzenesulfon-amide]",–,–,116,69.7,471,–,37.2
"CC(=O)/C=C/C(=O)N1CCN(c2ncnc3ccc(-c4cnc(OCC(F)(F)F)c(NS(=O)(=O)c5ccc(F)cc5F)c4)cc23)CC1 [Example 159, (E)-2,4-difluoro-N-(5-(4-(4-(4-oxopent-2-enoyl)piperazin-1-yl)quinazolin-6-yl)-2-(2,2,2-trifluoroethoxy)pyridin-3-yl)benzenesulfonamide]",357,91.7,361,172,–,–,–
"COc1ncc(-c2ccc3ncnc(N4CCN(C(=O)/C=C/C(C)=O)CC4)c3c2)cc1NS(=O)(=O)c1ccc(C#N)cc1F [Example 123, (E)-4-cyano-2-fluoro-N-(2-methoxy-5-(4-(4-(4-oxopent-2-enoyl)piperazin-1-yl)quinazolin-6-yl)pyridin-3-yl)benzenesulfonamide]",84.1,–,118,21.2,–,–,31.4
"COc1ncc(-c2ccc3ncnc(N4CCC5(CC=CC5=O)CC4)c3c2)cc1NS(=O)(=O)c1ccc(F)cc1F [Example 70, 2,4-difluoro-N-(2-methoxy-5-(4-(1-oxo-8-azaspiro[4,5]dec-2-en-8-yl)quinazolin-6-yl)pyridin-3-yl)benzenesulfonamide]",40.1,–,74.5,58.4,–,–,35
